Measurements: article PMC5049494, “Nitrotriazole-based acetamides and propanamides with broad spectrum antitrypanosomal activity” (European Journal of Medicinal Chemistry, 2016)
Read-outs that look alike come from different tables or passages of the source.

Experiments:
[1] = test system: L. donovani axenic, strain MHOM-ET-67/L82 amastigotes; set-up: method as in PMID 26344593, PMID 25580906; conditions: cited from earlier work; for SI (L.d.): IC50 L6/IC50 parasite, previously evaluated compounds; for IC50: previously evaluated compounds (orange, designated a), read-out: L.d. IC50
[2] = test system: T. cruzi, strain Tulahuen C4 amastigotes; conditions: cited from earlier work; for SI (T. c.): IC50 L6/IC50 parasite; for SI (T. c.) / Bnz/comp: previously evaluated compounds; for Bnz/comp: fold potency relative to Bnz; for IC50: previously evaluated compounds (orange, designated a), read-out: T. c. IC50
[3] = test system: T.b. rhodesiense, strain STIB 900 trypomastigotes; set-up: method as in PMID 26344593, PMID 25580906; conditions: cited from earlier work; for IC50: previously evaluated compounds (orange, designated a), read-out: T.b.r. IC50
[4] = test system: L6 cells (rat skeletal myoblasts); set-up: method as in PMID 26344593, PMID 25580906; conditions: previously evaluated compounds (orange, designated a); read-out: Cyt. L6 IC50; cited from earlier work
[5] = test system: L. donovani axenic, strain MHOM-ET-67/L82 amastigotes; assay: In vitro activity against L. donovani; assay type: cell-based; conditions: for IC50: Leishmania donovani, L. donovani axenic amastigotes MHOM-ET-67/L82, means of 2 to 3 measurements, SD < 5%, read-out: L.d. IC50
Description: (§3) The concentration of compound that inhibits parasite growth by 50% (IC50) was calculated from dose response curves for each parasite (Table 1). In addition, compounds were tested for toxicity in L6 rat skeletal myoblasts, the host cells for T. cruzi amastigotes, in order to calculate a selectivity index for each parasite [SI = IC50L6/IC50parasite]
(§4) In vitro activity against T. cruzi, T. b. rhodesiense, L. donovani and cytotoxicity assessment using L6 cells (rat skeletal myoblasts) was determined using a 96-well plate format as previously described [37]. Data were analyzed with the graphic program Softmax Pro (Molecular Devices, Sunnyvale, CA, USA), which calculated IC50 values by linear regression from the sigmoidal dose inhibition curves.

[6] = test system: bloodstream form T.b. brucei recombinant parasites expressing wild type (-tet) or elevated (+tet) levels of TbNTR; assay: microbe, parasite or virus in culture; assay type: cell-based; conditions: Trypanosoma brucei
Description: The BSF of T. brucei parasites were seeded at 1 × 10^3 mL^−1 in 200 μL of growth medium containing different concentrations of nitroheterocycle. Where appropriate, induction of the TbNTR was carried out by adding tetracycline (1 μg/mL). After incubation for 3 days at 37 °C, 20 μL of Alamar blue was added to each well and the plates incubated for a further 16 h. The cell density of each culture was determined as described before [20] and the IC50 established.

[7] = test system: T.b. rhodesiense, strain STIB 900 trypomastigotes; assay: In vitro activity against T. b. rhodesiense; assay type: cell-based; conditions: for IC50: Trypanosoma brucei, T.b. rhodesiense STIB 900 trypomastigotes, means of 2 to 3 measurements, SD < 5%, read-out: T.b.r. IC50
Description: (§1) Compounds in Table 1 were screened for anti-parasitic activity against three trypanosomatids: T. cruzi, T. b. rhodesiense and Leishmania donovani and compared with previously made analogs shown in orange and designated with a. […] In addition, compounds were tested for toxicity in L6 rat skeletal myoblasts, the host cells for T. cruzi amastigotes, in order to calculate a selectivity index for each parasite [SI = IC50L6/IC50parasite] (Table 1). The TDR (Special Programme for Research and Training in Tropical Diseases, World Health Organization) criteria were adopted to interpret antiparasitic activity and selectivity.
(§2) In vitro activity against T. cruzi, T. b. rhodesiense, L. donovani and cytotoxicity assessment using L6 cells (rat skeletal myoblasts) was determined using a 96-well plate format as previously described. Data were analyzed with the graphic program Softmax Pro (Molecular Devices, Sunnyvale, CA, USA), which calculated IC50 values by linear regression from the sigmoidal dose inhibition curves.

[8] = test system: T. cruzi, strain Tulahuen C4 amastigotes; assay: In vitro activity against T. cruzi; assay type: cell-based; conditions: for IC50: Trypanosoma cruzi, T. cruzi Tulahuen C4 amastigotes, means of 2 to 3 measurements, SD < 5%, read-out: T. c. IC50; for Bnz/comp: fold antichagasic potency relative to Bnz (T. cruzi IC50 ratio)
Description: as §3, §4

[9] = test system: bloodstream form T.b. brucei wild type; assay: T. brucei antiproliferating assay, wild type; assay type: cell-based; conditions: means from 4 experiments ± SD
Description: The BSF of T. brucei parasites were seeded at 1 × 10^3 mL^−1 in 200 μL of growth medium containing different concentrations of nitroheterocycle. Where appropriate, induction of the TbNTR was carried out by adding tetracycline (1 μg/mL). After incubation for 3 days at 37 °C, 20 μL of Alamar blue was added to each well and the plates incubated for a further 16 h. The cell density of each culture was determined as described before and the IC50 established.

[10] = Cytotoxicity in the host L6 cells; assay type: cell-based, rat; conditions: rat, L6 cells (rat skeletal myoblasts); cytotoxicity in host L6 cells; read-out: Cyt. L6 IC50
Description: as §1, §2

[11] = test system: transgenic T. cruzi parasites expressing firefly luciferase; assay type: in vivo, Balb/c mice
Description: A fast luminescence assay was used in an acute infected murine model, in which transgenic T. cruzi parasites expressing firefly luciferase were injected in 5 week-old Balb/c mice. Mice were injected with D-luciferin before imaging. Groups of 5 mice/group were treated i.p. for 10 consecutive days with each compound, at 13 or 15 mg/kg/day. […] The mean ratio of parasite levels was calculated after 5 and 10 days of treatment.
For in vivo studies, a Brazilian strain trypomastigotes from transgenic T. cruzi parasites expressing firefly luciferase were used as described before. Briefly, parasites (10^5 trypomastigotes) were injected in 5 week-old Balb/c mice (Taconic) and three days later mice were anesthesized by inhalation of isofluorane, followed by an injection with 150 mg/kg of D-luciferin potassium-salt in PBS. Mice were imaged 5–10 min after injection of luciferin with an IVIS 100 (Xenogen, Alameda, CA) and the data acquisition and analysis were performed with the software LivingImage (Xenogen) as described before. Treatment with test compounds started 4 days post infection at 13 or 15 mg/kg/day × 10 days, given i.p. The vehicle control was 2% methylcellulose +0.5% Tween 80 and groups of 5 mice/group were used. Mice were imaged after 5 and 10 days of treatment. The ratio of parasite levels was calculated for each animal dividing the luciferase signal after treatment by the luciferase signal on the first imaging (before treatment). Mean values of all animals in each group ± SD were used for plotting.

[12] = read-out: IC50 value T.b. brucei TbNTR (+tet)
[13] = read-out: IC50 value T.b. brucei TbNTR (-tet)
[14] = propanamide vs acetamide analog
[15] = Trypanosoma brucei, read-out: IC50 value T.b. brucei Wild type, bloodstream form

SMILES: O=C(Cn1cnc([N+](=O)[O-])n1)Nc1ccc(Oc2ccc(F)cc2)cc1 [Compound 7a]
- SI (L.d.) [1]: 384
- IC50 [1]: 183 nM
- SI (T. c.) [2]: 1954
- Bnz/comp [2]: 56
- IC50 [2]: 36 nM
- IC50 [3]: 2000 nM
- IC50 [4]: 70400 nM

SMILES: O=C(Cn1cnc([N+](=O)[O-])n1)Nc1ccc(Oc2ccc(Cl)cc2)cc1 [Compound 6a]
- SI (L.d.) [1]: 853
- IC50 [1]: 34 nM
- SI (T. c.) [2]: 3615
- Bnz/comp [2]: 254
- IC50 [3]: 1330 nM
- IC50 [4]: 28900 nM

SMILES: O=C(Cn1cnc([N+](=O)[O-])n1)Nc1ccc(Oc2ccccc2)cc1 [Compound 8a]
- SI (L.d.) [1]: 339
- IC50 [1]: 271 nM
- SI (T. c.) [2]: 1416
- Bnz/comp [2]: 31
- IC50 [2]: 65 nM
- IC50 [3]: 2720 nM
- IC50 [4]: 92000 nM

SMILES: O=C(CCn1cnc([N+](=O)[O-])n1)Nc1cccc(-c2ccccc2)c1 [Compound 10, N-([1,1′-biphenyl]-3-yl)-3-(3-nitro-1H-1,2,4-triazol-1-yl)propanamide]
- SI (L.d.) ([5]; IC50 in L6 cells/IC50 in L. donovani): 10.2
- IC50 [5]: 3550 nM
- IC50 [6, 12]: 230 ± 20 nM
- IC50 [6, 13]: 5580 ± 620 nM
- SI (T.b.r.) ([7]; IC50 in L6 cells/IC50 in T.b. rhodesiense): 134
- IC50 [7]: 270 nM
- fold more potent against T. b. rhodesiense than the corresponding acetamide [7, 14]: 214 fold
- SI (T. c.) ([8]; IC50 in L6 cells/IC50 in T. cruzi): 452
- IC50 [8]: 80 nM
- Bnz/comp [8]: 28
- fold more potent against T. cruzi than the acetamide analog [8, 14]: 2.2 fold
- melting point: 174 to 176 °C
- IC50 [9, 15]: 6660 ± 920 nM
- IC50 [10]: 36200 nM

SMILES: O=C(Cn1cnc([N+](=O)[O-])n1)Nc1cccc(OCc2ccccc2)c1 [Compound 11a]
- IC50 [1]: 3360 nM
- Bnz/comp [2]: 17
- anti-HAT activity class (TDR criteria) ([3]; T. b. rhodesiense, previously evaluated acetamides): moderately active (IC50 between 0.5 and 6.0 μM)
- IC50 [3]: 4860 nM
- IC50 [4]: 68400 nM

SMILES: O=C(Cn1cnc([N+](=O)[O-])n1)Nc1cccc(-c2ccccc2)c1 [Compound 10a]
- IC50 [4]: 45300 nM

SMILES: O=C(CCn1cnc([N+](=O)[O-])n1)Nc1ccc(Oc2ccc(F)cc2)cc1 [Compound 7, N-(4-(4-fluorophenoxy)phenyl)-3-(3-nitro-1H-1,2,4-triazol-1-yl)propanamide]
- IC50 [5]: 1180 nM
- IC50 [6, 12]: 330 ± 30 nM
- IC50 [6, 13]: 680 ± 70 nM
- IC50 [7]: 167 nM
- IC50 [8]: 40 nM
- Bnz/comp [8]: 55
- IC50 [9, 15]: ~650 nM
- IC50 ([9]; read-out: IC50 value T.b. brucei Wild type, bloodstream form): 570 ± 50 nM
- toxicity symptoms in treated mice ([11]; 13 mg/kg/day i.p. x 10 days): No toxicity symptoms were observed
- parasite load after 10 days of treatment ([11]; 13 mg/kg/day i.p. x 10 days, acute murine model, p < 0.0001): undetectable levels
- parasitic level after 5-day treatment ([11]; 13 mg/kg/day i.p., compared to untreated control): Statistically significant reduction in parasitic level
- IC50 [10]: 23400 nM
